In one assay the target is Human VPS34 (Homo sapiens (Human), UniProt Q8NEB9). As to the kind of experiment: Human VPS34 enzyme assay (Adapta TR-FRET). It counts as biochemical. The following applies: compound concentration 1.11 μM; for inhibition at 1.11 µM: read-out: Percent Inhibition.
A further assay concerns PC9 cell line. In words: Cellular assay for anti-proliferative activity in combination with a second therapeutic agent (Cell Titer Glo), PC9. It counts as cell-based, human. To be noted: in combination with AZD9291, call from Combination Index. How it is done: Cells were plated in […] of media in 384 well plates at 1,000 cells per well (A431, PC9, and NCI-H1650 cell lines), 1,500 cells per well (NCI-H1975) or 2,000 cells per well ([…]). The plates were incubated for 24 hrs at 37° C., 6% CO2. The test compounds (see Table 38 below) were diluted serially, and 62.5 nL of each compound solution (or DMSO, if it is a single agent experiment) is added so the total added to the cells is 125 nL. Cell plates were incubated for 72 hrs at 37° C., 6% CO2. Cell Titer Glo reagent (Promega) was added. The plates were then incubated for 10 minutes at room temperature before luminescence was read on a plate reader such as the Pherastar Plus, Pherastar FS, or LEADSeeker imaging system.
Bliss antagonism was defined similarly.
Bliss dependence was defined as the percent cell survival at a certain dose combination divided by the percent cell survival predicted by Bliss independence. More specifically, the Bliss dependence is vAB/(vA*vB), where vAB is the viability with drug A and drug B added, while vA and vB are the viabilities with each drug alone. […]
Another way to evaluate additivity is through consideration of Loewe additivity. […] For Bliss independence, the boundary between additivity and synergy must be measured. […]
Synergy can also be measured by nonlinear blending synergy. […]
In general terms: ATP-based viability assays read luminescence as a measure of living cells.

By inhibition is commonly meant the relative decrease from the control value, in per cent.

Human VPS34, sequence (Q8NEB9 whole entry): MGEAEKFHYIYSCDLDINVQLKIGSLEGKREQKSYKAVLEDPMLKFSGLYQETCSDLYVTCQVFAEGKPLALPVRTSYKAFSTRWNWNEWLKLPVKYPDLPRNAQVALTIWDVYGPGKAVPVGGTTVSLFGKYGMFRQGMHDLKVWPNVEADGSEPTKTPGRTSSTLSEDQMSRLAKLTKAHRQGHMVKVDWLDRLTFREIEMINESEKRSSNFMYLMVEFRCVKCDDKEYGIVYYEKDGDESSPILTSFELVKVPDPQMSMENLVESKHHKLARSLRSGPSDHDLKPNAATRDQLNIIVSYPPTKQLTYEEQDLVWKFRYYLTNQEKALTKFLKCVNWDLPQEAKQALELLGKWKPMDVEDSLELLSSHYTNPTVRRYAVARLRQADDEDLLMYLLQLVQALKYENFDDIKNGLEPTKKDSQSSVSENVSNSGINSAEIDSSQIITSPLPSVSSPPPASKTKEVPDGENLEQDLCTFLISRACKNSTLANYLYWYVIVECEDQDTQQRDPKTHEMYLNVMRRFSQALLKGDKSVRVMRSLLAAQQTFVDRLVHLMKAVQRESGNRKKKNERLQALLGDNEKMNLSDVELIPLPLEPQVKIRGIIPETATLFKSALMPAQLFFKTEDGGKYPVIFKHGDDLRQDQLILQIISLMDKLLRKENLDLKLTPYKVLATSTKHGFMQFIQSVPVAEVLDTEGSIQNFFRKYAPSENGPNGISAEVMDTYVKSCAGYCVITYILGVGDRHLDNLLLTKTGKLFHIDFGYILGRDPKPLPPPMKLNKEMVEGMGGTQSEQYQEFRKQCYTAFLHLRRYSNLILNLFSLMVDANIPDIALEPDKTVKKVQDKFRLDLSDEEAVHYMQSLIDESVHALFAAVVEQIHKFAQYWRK

As for `Cc1c(-c2ccnc(NC(=O)C3CC3)c2)cnc(Cl)c1NS(=O)(=O)c1ccc(F)cc1F` [Compound I-308, N-(6-chloro-5-{[(2,4-difluorophenyl)sulfonyl]amino}-4-methyl-3,4′-bipyridin-2′-yl)cyclopropane carboxamide], the inhibition at 1.11 µM on Human VPS34 is over 99%. Moreover, the Meaning result in the assay on PC9 cell line is reported as “SubAdditivity”.

Consider `CC(=O)Nc1cc(-c2cnc(N)c(N3CCCNS3(=O)=O)c2)ccn1` [Compound I-490, N-[6-amino-5-(1,1-dioxido-1,2,6-thiadiazinan-2-yl)-3,4′-bipyridin-2′-yl]acetamide], for which, on Human VPS34, the inhibition at 1.11 µM was over 99%.

Consider `CC(=O)Nc1cc(-c2cnc(N(C)C)c(S(=O)(=O)Nc3ccc(F)cc3F)c2)ccn1` [Compound I-491, N-{5-[(2,4-difluorophenyl)sulfamoyl]-6-(dimethylamino)-3,4′-bipyridin-2′-yl}acetamide], for which, at Human VPS34, the inhibition at 1.11 µM was determined as 98%.

Turning to `CC(=O)Nc1cc(-c2cnc(C)c(OCC3CC3)c2)ccn1` [Compound I-492, N-[5-(cyclopropylmethoxy)-6-methyl-3,4′-bipyridin-2′-yl]acetamide], the inhibition at 1.11 µM on Human VPS34 turned out to be 86%.

Consider `CC(=O)Nc1cc(-c2cnc(Cl)c(NS(=O)(=O)c3cn(C)nc3C(F)(F)F)c2C)ccn1` [Compound I-493, N-[6-chloro-4-methyl-5-({[1-methyl-3-(trifluoromethyl)-1H-pyrazol-4-yl]sulfonyl}amino)-3,4′-bipyridin-2′-yl]acetamide], for which, on Human VPS34, the “Percent Inhibition” value amounted to 99%.

With `CC(=O)Nc1cc(-c2cnc(C)c(NS(=O)(=O)N(C)c3ccccc3)c2)ccn1` [Compound I-494, N-(6-methyl-5-{[methyl(phenyl)sulfamoyl]amino}-3,4′-bipyridin-2′-yl)acetamide], the inhibition at 1.11 µM at Human VPS34 amounted to 91%.

Take `Cc1nccc(Nc2cc(-c3cnc(C)c(C(=O)N4CC(C)(C)C4)c3)ccn2)n1` [Compound I-495, (3,3-dimethylazetidin-1-yl){6-methyl-2′-[(2-methylpyrimidin-4-yl)amino]-3,4′-bipyridin-5-yl}methanone]: the inhibition at 1.11 µM at Human VPS34 amounted to 83%.
